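How tested: cells in 96-well plates exposed to compound for 48 hours at five concentrations. TGI is the concentration that stops growth completely.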
Columns and labels:
Assay in all cases: NCI anticancer screen, dose series, 48 h
CAKI-1 renal = test system: CAKI-1 renal
DU-145 prostate = test system: DU-145 prostate
OVCAR-8 ovarian = test system: OVCAR-8 ovarian
SW-620 colon = test system: SW-620 colon
UO-31 renal = test system: UO-31 renal
SK-MEL-5 melanoma = test system: SK-MEL-5 melanoma
UACC-257 melanoma = test system: UACC-257 melanoma
RXF 393 renal = test system: RXF 393 renal
SK-OV-3 ovarian = test system: SK-OV-3 ovarian
786-0 renal = test system: 786-0 renal
SNB-75 CNS = test system: SNB-75 CNS
K-562 leukemia = test system: K-562 leukemia
U251 CNS = test system: U251 CNS
KM12 colon = test system: KM12 colon
SNB-19 CNS = test system: SNB-19 CNS
CCRF-CEM leukemia = test system: CCRF-CEM leukemia
M14 melanoma = test system: M14 melanoma
MDA-N = test system: MDA-N

| SMILES | TGI (CAKI-1 renal) [µM] | TGI (DU-145 prostate) [µM] | TGI (OVCAR-8 ovarian) [µM] | TGI (SW-620 colon) [µM] | TGI (UO-31 renal) [µM] | TGI (SK-MEL-5 melanoma) [µM] | TGI (UACC-257 melanoma) [µM] | TGI (RXF 393 renal) [µM] | TGI (SK-OV-3 ovarian) [µM] | TGI (786-0 renal) [µM] | TGI (SNB-75 CNS) [µM] | TGI (K-562 leukemia) [µM] | TGI (U251 CNS) [µM] | TGI (KM12 colon) [µM] | TGI (SNB-19 CNS) [µM] | TGI (CCRF-CEM leukemia) [µM] | TGI (M14 melanoma) [µM] | TGI (MDA-N) [µM] |
| --- | --- | --- | --- | --- | --- | --- | --- | --- | --- | --- | --- | --- | --- | --- | --- | --- | --- | --- |
| CC(C)/C(=N\[N+](C)(C)C)c1ccccc1 | > 100 | > 100 | > 100 | > 100 | > 100 | > 100 | > 100 | > 100 | > 100 | > 100 | > 100 | > 100 | > 100 | > 100 | > 100 | > 100 | > 100 | > 100 |
| CC(C)(C)C1=CC(=C2C=Cc3ccccc3O2)C=C(C(C)(C)C)C1=O | 29.6 | 20.8 | > 51.8 | 13.9 | 21.9 | 13.9 | 13.2 | 7.71 | > 42.4 | 9.55 | 40 | 29.9 | 7.51 | 9.7 | > 50.7 | 6.12 | 10.6 | 7.39 |
| O=S(=O)(O)c1ccc2c(N=Nc3ccc(Cl)cc3)c(O)ccc2c1 | > 100 | > 100 | > 100 | > 100 | > 100 | > 100 | > 100 | > 100 | > 100 | > 100 | > 100 | > 100 | > 100 | > 100 | > 100 | > 100 | > 100 | > 100 |
| CSCCCNC(=O)c1csc(-c2csc(CCNC(=O)CNC(=O)CNC(=O)OC(C)(C)C)n2)n1 | > 100 | > 100 | > 100 | > 100 | > 100 | > 100 | > 100 | > 100 | > 100 | > 100 | > 100 | > 100 | > 100 | > 100 | > 100 | > 100 | > 100 | > 100 |
| COc1nc2c(c(=O)n1C)N=C(c1ccc(Cl)cc1)CC(c1ccccc1)N2 (configuration not stated) | 74.5 | > 100 | > 100 | > 100 | > 100 | 38.2 | 67.9 | 55 | > 100 | > 100 | 46.7 | 54.2 | > 100 | 33.8 | > 100 | 69.3 | > 100 | 37.8 |
| COc1cc(NC=C2C(=O)OC(C)(C)OC2=O)c(OC)c(C)c1OC | > 100 | > 100 | > 100 | > 100 | > 100 | > 100 | > 100 | > 100 | > 100 | > 100 | > 100 | > 100 | > 100 | > 100 | > 100 | > 100 | > 100 | > 100 |
| O=C(Nc1nnc(-c2c(Cl)c(Cl)c(Cl)c(Cl)c2-c2nc3cc(C(=O)c4ccccc4)ccc3[nH]2)o1)c1ccc(Cl)cc1 | > 100 | > 100 | > 100 | > 100 | > 100 | 39.9 | > 100 | > 100 | > 100 | > 100 | > 100 | > 100 | > 100 | > 100 | > 100 | > 100 | > 100 | 54.2 |
| Cc1ccc(O)c(C2=CC(c3cccc(Br)c3)SC(N)=N2)c1 (configuration not stated) | > 100 | > 100 | > 100 | > 100 | 65.3 | 32 | 41.3 | 47.1 | 75.6 | 74.4 | 61.3 | 83.2 | 33.4 | 82.3 | 32.4 | 81.7 | 62.9 | 50.1 |
| CCN(CC)CCCNc1[nH]ncc2c(C)c3nc4ccc(OC)cc4c3cc12 | 29.3 | 8.24 | 2.01 | 1.58 | 15 | 2.83 | 7.18 | 3.37 | 5.33 | 2.28 | 2.1 | 1.64 | 1.77 | 4.49 | 1.21 | 2 | 3.26 | 1.93 |
| C=CCN(c1cc(OC)c2[nH]c(C(=O)OCC)c(C)c2c1[N+](=O)[O-])S(C)(=O)=O | > 100 | > 100 | > 100 | > 100 | 74.8 | 44.8 | > 100 | 45.9 | > 100 | > 100 | 60 | 31.4 | 31.6 | 66.2 | > 100 | > 100 | > 100 | 52.7 |
| O=C(Nc1cccc2ccccc12)c1ccccc1 | > 100 | > 100 | > 100 | > 100 | > 100 | > 100 | > 100 | > 100 | > 100 | > 100 | > 100 | > 100 | > 100 | > 100 | > 100 | > 100 | > 100 | > 100 |
| O=S(=O)(/N=C(\NO)Nc1ccc(Cl)cc1)c1ccccc1 | 23 | > 60.3 | > 75 | > 100 | 27.5 | 21.8 | 26.6 | 40 | > 100 | 16.9 | 19.4 | > 100 | > 100 | > 100 | > 89.3 | > 100 | 48.6 | 27.7 |
| Nc1c2c(nc3ccccc13)-c1ccccc1NCCC2 | > 100 | > 100 | > 100 | > 100 | 88.3 | 28.6 | 28.3 | 33.2 | > 100 | 32.4 | > 100 | > 100 | > 100 | > 100 | > 100 | 81.3 | 33.3 | 39 |
| CC1CN=C(c2cccc(-c3nc(-c4cccc(C5=NCC(C)N5)c4)nc(N(C)C)n3)c2)N1 (configuration not stated) | 32.2 | 7.14 | 11.6 | 3.72 | 13.4 | 7.93 | 11 | 11.8 | 4.61 | 5.67 | 5.13 | 2.77 | 2.13 | 7.72 | 5.27 | 3.45 | 13 | 4.08 |
| Cc1cccc2c(N)c3cccc(C(=O)NCC[N+]4(Cc5ccc([N+](=O)[O-])cc5)CCOCC4)c3nc12 | > 100 | > 100 | > 100 | > 100 | > 100 | > 100 | > 100 | > 100 | > 100 | > 100 | 63 | > 100 | > 100 | > 100 | > 100 | > 100 | > 100 | > 100 |
| COc1ccc2c3c1OC1C34CCN(C)C(C2)C4=CC(I)C1(OC)OC (configuration not stated) | 25.6 | 22.6 | 16.1 | 20.1 | 28.5 | 25.6 | 26.9 | 23.1 | 28.9 | 14 | 34.5 | 23.4 | 29.8 | 28.3 | 30.5 | 5.87 | 29.6 | 18.8 |
| CCOC(=O)c1cc(C2CCN(c3ccccc3)C2=O)c(C(=O)/C=C(/C)N)[nH]1 (configuration not stated) | 81.6 | > 100 | > 100 | > 100 | > 100 | > 100 | > 100 | 78.6 | 50.7 | 21.8 | 28.2 | > 100 | 36.4 | > 100 | 52.4 | > 100 | > 100 | > 100 |
| COc1ccc2nc3n(c2c1)C(=O)c1ccccc1-3 | > 100 | > 100 | > 100 | > 100 | > 100 | > 100 | > 100 | > 100 | > 100 | > 100 | > 100 | > 100 | > 100 | > 100 | > 100 | > 100 | > 100 | > 100 |
| O=C(O)c1ccc(Nc2nc3cc(C(F)(F)F)ccc3n3cccc23)cc1 | > 100 | > 100 | > 100 | > 100 | > 100 | 38.8 | 71.6 | 58.8 | > 100 | 65.5 | 81 | 67.7 | 52.6 | > 100 | > 100 | > 100 | 80.5 | > 100 |
| CCOC(=O)C(O)(C(=O)OCC)c1cc(C(C)(C)C)c(O)c(C(C)(C)C)c1 | > 100 | > 100 | > 100 | > 100 | > 100 | 32.9 | > 100 | 77.1 | > 100 | > 100 | > 100 | > 100 | > 100 | > 100 | 74.6 | > 100 | > 100 | > 100 |
| CC1(C)CC(=O)c2c(nc3c(ccc4ccccc43)c2-c2ccc(NC(=O)CCCCC(=O)Nc3ccc(-c4c5c(nc6c4ccc4ccccc46)CC(C)(C)CC5=O)cc3)cc2)C1 | > 100 | > 100 | 98.4 | > 100 | 74.1 | > 100 | > 100 | > 100 | > 100 | > 100 | 53.1 | > 100 | > 100 | 42.2 | > 100 | 78.3 | > 100 | 68.3 |
| CC[P+]1(c2ccccc2)[C@@H](C)CC[C@@H]1C | > 100 | > 100 | > 100 | > 100 | > 100 | > 100 | > 100 | > 100 | > 100 | > 100 | > 100 | > 100 | > 100 | > 100 | > 100 | > 100 | > 100 | > 100 |
| NC(Cc1ncccn1)C(=O)O (configuration not stated) | > 100 | > 100 | > 100 | > 100 | > 100 | > 100 | > 100 | > 100 | > 100 | > 100 | > 100 | > 100 | > 100 | > 100 | > 100 | > 100 | > 100 | > 100 |
| O=[N+]([O-])/C(C(Cl)=C(Cl)Cl)=C(\N1CCCCC1)n1nnc2ccccc21 | > 55.9 | 37.7 | 42.6 | 39.1 | 34.3 | 32.7 | 37.2 | 43.6 | 68.2 | 33.5 | > 65.5 | 22.5 | 31.1 | > 88 | 40.3 | 14.5 | 32.5 | 44.1 |
